Assay [1] concerns p53 acetylation levels in SH-SY5Y human neuroblastoma cells. As to the kind of experiment: Effect of compounds on p53 acetylation level in cells (Western blot). The note with it: ATRA-induced differentiation, compound 10 μM, 2 h, Figure 5. The format is cell-based. (In general: In western blotting, separated proteins are transferred to a membrane and probed.)
The target of another assay is T1, SIRT1 (Homo sapiens, UniProt Q96EB6).
T1 sequence (Q96EB6 1-747): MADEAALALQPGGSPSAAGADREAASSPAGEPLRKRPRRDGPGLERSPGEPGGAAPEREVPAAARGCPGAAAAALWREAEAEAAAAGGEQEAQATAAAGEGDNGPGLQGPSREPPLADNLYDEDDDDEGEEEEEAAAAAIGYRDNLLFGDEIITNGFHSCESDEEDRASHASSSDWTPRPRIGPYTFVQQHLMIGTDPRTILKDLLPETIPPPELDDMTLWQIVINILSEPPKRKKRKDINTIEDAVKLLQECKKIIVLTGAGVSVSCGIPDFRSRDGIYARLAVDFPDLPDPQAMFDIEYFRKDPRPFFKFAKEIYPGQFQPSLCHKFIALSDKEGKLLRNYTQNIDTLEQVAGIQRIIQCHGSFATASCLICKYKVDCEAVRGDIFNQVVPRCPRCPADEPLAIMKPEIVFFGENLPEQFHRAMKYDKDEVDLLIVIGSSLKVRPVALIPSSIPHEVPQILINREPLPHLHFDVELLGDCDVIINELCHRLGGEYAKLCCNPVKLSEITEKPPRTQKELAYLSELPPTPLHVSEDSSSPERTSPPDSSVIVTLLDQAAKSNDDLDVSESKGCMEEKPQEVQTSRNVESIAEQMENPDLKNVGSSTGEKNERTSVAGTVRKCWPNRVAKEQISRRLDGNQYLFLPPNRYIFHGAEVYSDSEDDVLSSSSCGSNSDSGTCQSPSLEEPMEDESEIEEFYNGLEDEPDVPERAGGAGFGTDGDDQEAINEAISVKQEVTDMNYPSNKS
As to the kind of experiment: SIRT1 enzyme activity test (deacetylase inhibition). The note with it: 1 μM SIRT1, 500 μM NAD+, 10 μM substrate peptide. The format is biochemical.

The next assay concerns the target T2, SIRT5 (Homo sapiens, UniProt Q9NXA8).
T2 sequence (Q9NXA8 37-310): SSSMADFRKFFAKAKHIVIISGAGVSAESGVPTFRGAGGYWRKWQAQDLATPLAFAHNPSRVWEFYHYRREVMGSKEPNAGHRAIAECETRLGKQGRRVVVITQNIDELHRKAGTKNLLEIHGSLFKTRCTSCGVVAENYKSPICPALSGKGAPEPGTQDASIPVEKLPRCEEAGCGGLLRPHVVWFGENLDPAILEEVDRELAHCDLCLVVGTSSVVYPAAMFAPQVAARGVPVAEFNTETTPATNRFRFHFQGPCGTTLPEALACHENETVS
Description: Inhibition of SIRT5 (as SIRT1 IC50 method).

A further assay has as its target T3, SIRT3 (Homo sapiens, UniProt Q9NTG7).
T3 sequence (Q9NTG7 1-399): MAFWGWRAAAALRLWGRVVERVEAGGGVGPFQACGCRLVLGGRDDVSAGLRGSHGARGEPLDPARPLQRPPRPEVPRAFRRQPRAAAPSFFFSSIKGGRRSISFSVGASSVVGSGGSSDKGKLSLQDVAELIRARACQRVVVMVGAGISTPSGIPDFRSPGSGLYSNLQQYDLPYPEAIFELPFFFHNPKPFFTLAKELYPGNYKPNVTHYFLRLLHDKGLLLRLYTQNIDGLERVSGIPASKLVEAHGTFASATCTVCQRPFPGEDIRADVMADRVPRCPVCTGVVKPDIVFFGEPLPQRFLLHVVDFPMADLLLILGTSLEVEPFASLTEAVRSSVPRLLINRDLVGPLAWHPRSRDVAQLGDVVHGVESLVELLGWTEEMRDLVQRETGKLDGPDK
As to the kind of experiment: Inhibition of SIRT3 (as SIRT1 IC50 method).

A further assay deals with T4, SIRT2 (Homo sapiens, UniProt Q8IXJ6).
T4 sequence (Q8IXJ6 1-389): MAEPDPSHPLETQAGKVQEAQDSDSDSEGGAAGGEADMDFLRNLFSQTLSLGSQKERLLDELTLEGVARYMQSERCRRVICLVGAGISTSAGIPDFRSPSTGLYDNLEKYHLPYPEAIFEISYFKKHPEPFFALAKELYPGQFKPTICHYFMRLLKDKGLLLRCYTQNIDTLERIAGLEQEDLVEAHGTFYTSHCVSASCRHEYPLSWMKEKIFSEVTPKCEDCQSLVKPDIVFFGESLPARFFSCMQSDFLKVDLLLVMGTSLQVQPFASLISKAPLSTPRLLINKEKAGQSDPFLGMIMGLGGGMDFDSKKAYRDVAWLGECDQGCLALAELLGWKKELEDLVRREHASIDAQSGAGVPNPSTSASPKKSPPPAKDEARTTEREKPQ
As to the kind of experiment: Inhibition of SIRT2 (as SIRT1 IC50 method).

Setting [2] is: Table 3, SITR1 [sic], read-out: Inhibition of SIRT1 deacylation (IC50).
[3] abbreviates: Table 2, 37 °C, 30 min, read-out: IC50.

Like-named read-outs stand apart in the source and are kept apart here. Where only a bound is given, the exact number is not on record here.

These results are taken from WO2019242687A1, “1,3-dioxane-4,6-dione compound, and preparation method, pharmaceutical composition, and application thereof” (Shanghai Institute of Materia Medica of CAS, priority 2018, dated 2018).

On to `COc1cc(C=C2C(=O)OC(c3ccccc3)OC2=O)cc(I)c1O` (stereo not drawn) [Compound S6, 5-(4-hydroxy-3-iodo-5-methoxybenzylidene) -2-phenyl-1,3-dioxane-4,6-dione], for which the “effect on decrease of p53 acetylation level” value (“effect on decrease” for short) in assay [1] is listed as “抑制ATRA诱导的SH-SY5Y细胞分化过程中p53乙酰化水平降低”. On SIRT1 (setting [2]), the half-inhibitory concentration (IC50) stood at 0.89 ± 0.01 µM.

Consider `COc1cc(OC)c(C=C2C(=O)OC(c3ccccc3)OC2=O)cc1Br` (stereo not drawn) [Compound S22, 5-(5-bromo-2,4-dimethoxybenzylidene) -2-phenyl-1,3-dioxane-4,6-dione], for which, on SIRT1 (setting [3]), the IC50 amounted to 4.89 ± 0.35 µM.

Take `O=C1OC(c2ccccc2)OC(=O)C1=Cc1cc(Cl)c(O)c(Cl)c1` (stereo not drawn) [Compound S15, 5-(3,5-dichloro-4-hydroxybenzylidene) -2-phenyl-1,3-dioxane-4,6-dione]: the “effect on decrease” value in assay [1] is listed as “抑制ATRA诱导的SH-SY5Y细胞分化过程中p53乙酰化水平降低”. Moreover, the IC50 on SIRT1 (setting [2]) stood at 1.2 ± 0.09 µM.

As to `COc1cc(C=C2C(=O)OC(c3ccccc3)OC2=O)cc(Cl)c1O` (stereo not drawn) [Compound S10, 5-(3-chloro-4-hydroxy-5-methoxybenzylidene) -2-phenyl-1,3-dioxane-4,6-dione], the “effect on decrease” value in assay [1] is on record as “抑制ATRA诱导的SH-SY5Y细胞分化过程中p53乙酰化水平降低”. The IC50 was 32.5 ± 1.15 µM against SIRT5, 204 ± 16.2 µM at SIRT3, 1.9 ± 0.53 µM at SIRT1 (setting [2]) and 64.4 ± 7.09 µM at SIRT2.

With `O=C(COc1ccc(C=C2C(=O)OC(c3ccccc3)OC2=O)cc1)Nc1ccccc1` (stereo not drawn) [Compound S21, 2-{4-[(4,6-Dioxo-2-phenyl-1,3-dioxane-5-ylbenzylidene)methyl]phenoxy} -N-phenylacetamide], the IC50 at SIRT1 (setting [3]) worked out at 4.51 ± 1.17 µM.

As to `CC(C)Oc1ccccc1C=C1C(=O)OC(c2ccccc2)OC1=O` (stereo not drawn) [Compound S14, 5-(2-isopropoxybenzylidene) -2-phenyl-1,3-dioxane-4,6-dione], the IC50 on SIRT1 (setting [3]) came out at 14 ± 2.01 µM.

Take `COc1cc(C=C2C(=O)OC(C)(c3ccccc3)OC2=O)cc(I)c1O` (stereo not drawn) [Compound S2, 5-(4-hydroxy-3-iodo-5-methoxybenzylidene) -2-methyl-2-phenyl-1,3-dioxane-4,6-dione]: on SIRT1 (setting [3]), the IC50 was 2.45 ± 0.37 µM.

As to `CC1(c2ccccc2)OC(=O)C(=Cc2ccccc2)C(=O)O1` (stereo not drawn) [Compound S8, 5-benzylidene-2-methyl-2-phenyl-1,3-dioxane-4,6-dione], the IC50 on SIRT1 (setting [3]) was over 50 µM.

Consider `O=C1OC(c2ccccc2)OC(=O)C1=Cc1ccc(OCc2ccc3c(c2)OCO3)cc1` (stereo not drawn) [Compound S17, 5-[4-(1,3-Benzodioxolane-5-alkylmethoxy)benzylidene] -2-phenyl-1,3-dioxane-4,6-dione], for which the IC50 on SIRT1 (setting [3]) is 3.41 ± 0.19 µM.

As usually defined, the IC50 is the concentration that inhibits the measured activity by half.
